Molecules are shown by their SMILES. The source made the active and inactive calls. The calls are words filed in the database; no cut-off is given here.

As usually defined, the AUC(0-inf) is total exposure, with the tail of the curve extrapolated. High values mean more exposure, low ones less exposure. The Cmax is the peak of the concentration-time curve. The term inhibition denotes the drop in the measured response relative to a control, in per cent. The clearance is the rate of elimination divided by the concentration. Read a high clearance as a high capacity for elimination.

Series [1] is described as follows: AUC (0 to infinity) in Sprague-Dawley rat at 10 mg/kg, po measured after 24 hrs by LC-MS analysis. Type of series: ADME, organism-based. The note with it: in vivo.
Series [2] concerns Mus musculus. Kind of series: Protection against alcoholic liver disease in NIAAA C57BL/6J mouse model assessed as improvement of steatosis at 1 to 2.5 mg/kg, po preadministered with 1 to 4 % of alcohol for 10 days with subsequent compound addition from day 6 to 11 and further administered with 31.25 % alcohol on day 11 and measured after 9 hrs by Oil Red O staining based light microscopic analysis. Particulars: dose 1-2.5 mg/kg, time 5.0 day. It counts as functional, organism-based.

A short description of series [3]: Selectivity ratio for inhibition of PDE8A1 (unknown origin) using FAM-cyclic-3',5'-AMP as substrate to inhibition of PDE4D7 (unknown origin) using FAM-cyclic-3',5'-AMP as substrate.
For series [4], the system named is Mus musculus. Kind of series: Protection against alcoholic liver disease in NIAAA C57BL/6J mouse model assessed as decrease in serum ALT level at 1 to 2.5 mg/kg, po preadministered with 1 to 4 % of alcohol for 10 days with subsequent compound addition from day 6 to 11 and further administered with 31.25 % alcohol on day 11 and measured after 9 hrs by absorbance based plate analyzer. It counts as functional, organism-based. Particulars: dose 1-2.5 mg/kg, time 5.0 day.

Series [5] is described as follows: Cmax in Sprague-Dawley rat at 10 mg/kg, po measured after 24 hrs by LC-MS analysis. It counts as ADME, organism-based. The note with it: in vivo.
The target of series [6] is High affinity 3',5'-cyclic-AMP phosphodiesterase 7A (Homo sapiens) (UniProt Q13946). Kind of series: Inhibition of PDE7A (unknown origin) using FAM-cyclic-3',5'-AMP as substrate at 10 uM incubated for 1 hrs by fluorescence polarization based IMAP assay relative to control. On the technique in general: Polarisation of emitted light reports the rotation of a fluorescent probe.

Series [7] in a line: Clearance in Sprague-Dawley rat at 2 mg/kg, iv measured after 24 hrs by LC-MS analysis. It counts as ADME, organism-based. The note with it: in vivo.
Series [8] in a line: Drug concentration in Sprague-Dawley rat liver at 10 mg/kg, po administered as single dose for 1 hrs by LC-MS analysis. It counts as ADME, organism-based. The note with it: read-out: Ct.
Series [9] has as its system Mus musculus. In words: Protection against alcoholic liver disease in NIAAA C57BL/6J mouse model assessed as reduction in liver TNF-alpha mRNA level at 1 to 2.5 mg/kg, po preadministered with 1 to 4 % of alcohol for 10 days with subsequent compound addition from day 6 to 11 and further administered with 31.25 % alcohol on day 11 and measured after 9 hrs by RT-qPCR analysis. Particulars: dose 1-2.5 mg/kg, time 5.0 day. It counts as functional, organism-based. (In general: Quantitative PCR measures a nucleic acid by following its amplification.)

Series [10] can be described thus: Selectivity ratio for inhibition of PDE8A1 (unknown origin) using FAM-cyclic-3',5'-AMP as substrate to inhibition of PDE4B1 (unknown origin) using FAM-cyclic-3',5'-AMP as substrate.
The nature of series [11]: Drug concentration in Sprague-Dawley rat brain at 10 mg/kg, po administered as single dose for 1 hrs by LC-MS analysis. It counts as ADME, organism-based. Particulars: read-out: Ct.
The next series deals with SH-SY5Y. Kind of series: Cytotoxicity against human SH-SY5Y cells assessed as reduction in cell viability incubated for 48 hrs by MTT assay. It counts as toxicity, cell-based. (Tetrazolium assays rely on reduction of a dye to a coloured formazan, in cell work by metabolically active cells.)
Series [12] concerns Mus musculus. In words: Protection against alcoholic liver disease in NIAAA C57BL/6J mouse model assessed as reduction in liver IL-1beta mRNA level at 1 to 2.5 mg/kg, po preadministered with 1 to 4 % of alcohol for 10 days with subsequent compound addition from day 6 to 11 and further administered with 31.25 % alcohol on day 11 and measured after 9 hrs by RT-qPCR analysis. It counts as functional, organism-based. Particulars: dose 1-2.5 mg/kg, time 5.0 day.

In series [13] the test system is Mus musculus. In words: Protection against alcoholic liver disease in NIAAA C57BL/6J mouse model assessed as reduction in liver IL-6 mRNA level at 1 to 2.5 mg/kg, po preadministered with 1 to 4 % of alcohol for 10 days with subsequent compound addition from day 6 to 11 and further administered with 31.25 % alcohol on day 11 and measured after 9 hrs by RT-qPCR analysis. Particulars: dose 1-2.5 mg/kg, time 5.0 day. Type of series: functional, organism-based.

High affinity 3',5'-cyclic-AMP phosphodiesterase 7A (Homo sapiens), sequence (Q13946 whole entry): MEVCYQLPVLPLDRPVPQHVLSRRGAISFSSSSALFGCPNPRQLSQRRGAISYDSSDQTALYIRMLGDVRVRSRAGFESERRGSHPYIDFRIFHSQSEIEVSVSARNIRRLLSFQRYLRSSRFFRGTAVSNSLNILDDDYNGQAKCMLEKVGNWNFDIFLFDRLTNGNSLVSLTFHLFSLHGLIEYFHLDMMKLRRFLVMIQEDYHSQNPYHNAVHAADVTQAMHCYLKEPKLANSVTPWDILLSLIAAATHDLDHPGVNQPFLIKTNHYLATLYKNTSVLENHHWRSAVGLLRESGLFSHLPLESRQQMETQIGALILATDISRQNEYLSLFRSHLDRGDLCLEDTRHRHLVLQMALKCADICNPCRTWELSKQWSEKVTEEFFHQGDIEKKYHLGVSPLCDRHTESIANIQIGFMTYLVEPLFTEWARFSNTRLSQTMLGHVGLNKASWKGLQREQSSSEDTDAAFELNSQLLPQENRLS

Compound `CCOc1nc(Cl)cc2c1cnn2CCCC(=O)O` came in with an AUC(0-inf) in [1] of 828 µg·h/mL. In addition, the result in the series with Mus musculus [2], in the series with Mus musculus [4], with Mus musculus [9], in the series on Mus musculus [12] and in the series with Mus musculus [13] was Active. Further, the Selectivity ratio in [3] and in [10] was > 267 each time. The same compound showed a Cmax in series [5] of 43300 ng/mL. This compound also yielded an inhibition in series [6] of 11%. Further, the clearance in [7] is 0.211 mL/min/kg. The concentration at 1 h in series [8] came to 11200 ng/g; in [11], 322 ng/g. Moreover, the Activity result with SH-SY5Y is “Non-Toxic”.

For the origin of these results see ChEMBL document CHEMBL5532675, “Discovery of 4-Ethoxy-6-chloro-5-azaindazoles as Novel PDE4 Inhibitors for the Treatment of Alcohol Use Disorder and Alcoholic Liver Diseases” (J Med Chem, 2024).
